Consider 22 compounds from patent US5589568A (priority 1994, dated 1996).

In assay [1] the test system is Gi. Kind of assay: steady state GTPase activity of Gi in phospholipid vesicles.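 For all read-outs here: Steady-state GTP hydrolysis by Gi measured in a detergent-free buffer containing 1.1 mM MgSO4 plus the specified guanine nucleotide.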 The conditions noted are these: for Turnover number Gi 10 μg/ml: 10 μg/ml amine; for Turnover number Gi 10 μg/ml / Turnover number Gi 100 μg/ml / GTPase Gi 10 μM / GTPase Gi 100 μM: 30 min at 30° C.; for Turnover number Gi 100 μg/ml: 100 μg/ml amine; for GTPase Gi 10 μM: 10 μM peptide; for GTPase Gi 10 μM / GTPase Gi 100 μM: PE/PC/PS vesicles; for GTPase Gi 100 μM: 100 μM peptide; for G1 ef. (apparent efficacy, maximum turnover number of GTPase activity) / EC50: Table IV; for EC50: read-out: G1 af. (apparent affinity, estimated by EC50 of GTPase activity). In kind it is biochemical, rabbit.
Protocol: (§1) G proteins were reconstituted into phospholipid vesicles composed of dioleoyl-PC/bovine brain PS/1-palmitoyl,2-oleoyl-PE (3:4:3) as reported previously by Higashijima et al., 1988, incorporated herein by reference.
The concentration of free Mg^2+ in assay medium that contains 5 mM EDTA and no added Mg^2+ is estimated to be 0.1-0.2 nM according to Brandt et al., 1988 and 1983.

The target in assay [2] is T1, Go (Bos taurus, UniProt P08239).
T1 construct: proteins were extracted from bovine cerebral cortical membranes; from tissue; host or cells: bovine brain (cerebral cortical membranes)
Kind of assay: steady state GTPase activity of Go in phospholipid vesicles. In kind it is biochemical, bovine. The conditions noted are these: for Turnover number Go 10 μg/ml: 10 μg/ml amine; for Turnover number Go 10 μg/ml / Turnover number Go 100 μg/ml / GTPase Go 10 μM / GTPase Go 100 μM: 15 min at 20° C.; for Turnover number Go 10 μg/ml / GTPase Go 10 μM / GTPase Go 100 μM: PE/PC/PS vesicles; for Turnover number Go 100 μg/ml: 100 μg/ml amine; for GTPase Go 10 μM: 10 μM peptide; for GTPase Go 100 μM: 100 μM peptide; for ability to activate Gi and Go (in words): both Gi and Go, gramicidin S and dynorphin at 10 μM; for Goo ef. (apparent efficacy, maximum turnover number of GTPase activity): Table IV; for stimulation of GTPase activity: at higher concentrations, G protein not named in the sentence (Gi and Go tested).
Description: as §1

The target in assay [3] is Gs (Homo sapiens, UniProt P63092). Kind of assay: steady state GTPase activity of Gs. The format is biochemical. The conditions noted are these: Table IV. On the procedure: Methods for the assay of steady state GTP hydrolysis and GTPγS binding have been described previously by Higashijima, 1987, and Ferguson, 1986, and incorporated herein by reference. Unless noted otherwise, assays of steady state GTP hydrolysis and of the binding and dissociation of guanine nucleotides were carried out in the buffer described previously, but without detergent and with 1.1 mM MgSO4 and the nucleotide specified in the text. When necessary, the concentration of free Mg^2+ was adjusted using EDTA buffers as described previously by Higashijima, 1987, and incorporated herein by reference.
The data set forth in the following tables represent data generated by the inventors employing the steady state GTP hydrolysis, expressed as molar turnover numbers, are described herein under the "Assay" section of the Experimental Procedures in Example 1. The data has been classified according to the criteria outlined below and the effects of each peptide and modified variant on Go, Gi, and Gs have been tabulated. Table III below sets forth data generated for various mastoparan analogues designed by the inventors, in comparison with the various naturally-occurring mastoparans (e.g., MP, MP-A and MP-T). Table IV sets forth similar data generated for various receptor-based peptides designed by the inventors based on a consideration of various G-protein linked receptors.
Apparent affinity (af.) and apparent efficacy (ef.) were estimated by EC50 and maximum turnover number of GTPase activity.

Broadly, the EC50 is the concentration that produces a half-maximal response.

Where a SMILES comes first, the peptide text is derived from it. Where no end group is shown, it is not given here. The star is where a group is joined. X1 = CCCCCCCCCCCCCCCC*

T1 sequence (P08239 2-354 limits assumed): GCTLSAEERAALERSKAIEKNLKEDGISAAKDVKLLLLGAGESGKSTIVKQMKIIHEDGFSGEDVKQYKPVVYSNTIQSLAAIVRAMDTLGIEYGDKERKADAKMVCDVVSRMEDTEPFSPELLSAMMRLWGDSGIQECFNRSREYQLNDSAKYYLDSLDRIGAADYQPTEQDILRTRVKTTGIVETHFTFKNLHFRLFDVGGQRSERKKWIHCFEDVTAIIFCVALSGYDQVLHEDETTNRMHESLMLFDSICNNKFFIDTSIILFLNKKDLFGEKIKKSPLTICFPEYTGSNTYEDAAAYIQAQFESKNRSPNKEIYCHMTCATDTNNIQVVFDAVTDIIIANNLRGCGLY
T1 sequence (P62871 2-340 partner limits assumed): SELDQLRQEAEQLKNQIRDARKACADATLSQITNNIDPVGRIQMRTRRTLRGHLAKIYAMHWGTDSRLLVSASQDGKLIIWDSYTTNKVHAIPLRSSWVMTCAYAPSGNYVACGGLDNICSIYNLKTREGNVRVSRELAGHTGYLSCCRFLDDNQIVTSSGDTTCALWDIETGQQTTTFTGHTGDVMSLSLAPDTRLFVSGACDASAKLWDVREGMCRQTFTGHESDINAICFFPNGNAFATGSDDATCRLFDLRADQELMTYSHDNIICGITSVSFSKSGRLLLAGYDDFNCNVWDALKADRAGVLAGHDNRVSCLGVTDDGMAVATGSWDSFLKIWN
T1 sequence (P63212 2-68 partner limits assumed): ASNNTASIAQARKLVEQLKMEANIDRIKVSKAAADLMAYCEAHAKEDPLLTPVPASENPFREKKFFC
Sequence of Gs (P63092 whole entry): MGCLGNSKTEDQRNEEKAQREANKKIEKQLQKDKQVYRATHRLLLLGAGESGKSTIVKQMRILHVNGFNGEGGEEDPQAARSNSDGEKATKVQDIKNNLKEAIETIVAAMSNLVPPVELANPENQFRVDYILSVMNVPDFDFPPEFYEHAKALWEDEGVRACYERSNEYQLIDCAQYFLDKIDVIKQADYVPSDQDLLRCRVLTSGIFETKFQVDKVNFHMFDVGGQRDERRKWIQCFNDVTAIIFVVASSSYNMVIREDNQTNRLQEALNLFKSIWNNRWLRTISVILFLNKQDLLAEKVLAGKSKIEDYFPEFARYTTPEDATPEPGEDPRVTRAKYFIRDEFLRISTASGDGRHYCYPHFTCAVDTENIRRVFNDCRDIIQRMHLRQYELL

Consider `CCCCCCCCCCCCCCCC[N+](C)(C)Cc1ccccc1.[Cl-]` [BAC (C16 ), reference compound], for which, in assay [1], the “Turnover number Gi 10 μg/ml” value came out at 0.04 min⁻¹ and the “Turnover number Gi 100 μg/ml” value was below 0.01 min⁻¹. Further, in assay [2], the “Turnover number Go 10 μg/ml” value was determined as 1.4 min⁻¹ and the “Turnover number Go 100 μg/ml” value was 0.08 min⁻¹.
As for “Ac-WKKLLKLLKKLLKL-NH2 [CBP6, reference compound]”, in assay [1], the “GTPase Gi 10 μM” value came out at 0.51 min⁻¹ and the “GTPase Gi 100 μM” value came out at 0.06 min⁻¹. Moreover, in assay [2], the “GTPase Go 10 μM” value turned out to be 0.76 min⁻¹ and the “GTPase Go 100 μM” value was 0.38 min⁻¹. In assay [2] (GTPase), the “ability to activate Gi and Go (in words)” value was “quite active”.
For `CC[C@H](C)[C@H](NC(=O)[C@H](CCCNC(=N)N)NC(=O)[C@H](Cc1ccc(O)cc1)NC(=O)[C@H](CC(C)C)NC(=O)[C@H](CC(C)C)NC(=O)[C@H](CC(C)C)NC(=O)[C@@H](NC(=O)[C@H](CC(C)C)NC(=O)[C@@H](NC(=O)[C@H](CC(C)C)NC(=O)[C@H](CC(C)C)NC(=O)[C@@H](NC(=O)[C@H](C)NC(=O)[C@@H](NC(=O)[C@H](CC(C)C)NC(C)=O)[C@@H](C)O)C(C)C)[C@@H](C)O)[C@@H](C)O)C(=O)N[C@@H](CC(N)=O)C(=O)N[C@@H](CC(C)C)C(=O)N[C@@H](CCCCN)C(=O)N[C@@H](C)C(=O)N[C@@H](CC(C)C)C(=O)N[C@@H](C)C(=O)N[C@@H](C)C(=O)N[C@@H](CC(C)C)C(=O)N[C@@H](C)C(=O)N[C@@H](CCCCN)C(=O)N[C@@H](C)C(=O)N[C@@H](CC(C)C)C(=O)N[C@@H](CC(C)C)C(N)=O` [ER26], in assay [1], the “G1 ef. (apparent efficacy, maximum turnover number of GTPase activity)” value is given as “G (Good (G): 5-10 fold)” and the EC50 is 3 to 10 µM. Further, the “Goo ef. (apparent efficacy, maximum turnover number of GTPase activity)” value in assay [2] is “F (Fair (F): 2-5 fold)”. For the same compound, in assay [3], the “Gs ef. (apparent efficacy, maximum turnover number of GTPase activity)” value is reported as “F (Fair (F): 2-5 fold)”.
For “RPPGFSPFR [Bradykinin, reference compound]”, in assay [1], the “GTPase Gi 100 μM” value came to 0.03 min⁻¹. Further, the “GTPase Go 100 μM” value in assay [2] turned out to be 0.05 min⁻¹.
For the compound Dynorphin [reference compound], the “GTPase Gi 100 μM” value in assay [1] worked out at 0.10 min⁻¹. Further, in assay [2], the “GTPase Go 10 μM” value amounted to 0.13 min⁻¹ and the “GTPase Go 100 μM” value was found to be 0.33 min⁻¹. Also, the “ability to activate Gi and Go (in words)” value in assay [2] (GTPase) was “somewhat stimulatory”.
As to `CCCCCCCCCCCCCCCCSC[C@H](NC(=O)[C@H](CC(C)C)NC(=O)[C@H](C)NC(=O)[C@H](CCCCN)NC(=O)[C@H](C)NC(=O)[C@H](CC(C)C)NC(=O)[C@H](C)NC(=O)[C@H](C)NC(=O)[C@H](CC(C)C)NC(=O)[C@H](C)NC(=O)[C@H](CCCCN)NC(=O)[C@H](Cc1ccc(O)cc1)NC(=O)[C@H](CC(N)=O)NC(=O)[C@@H](N)[C@@H](C)CC)C(N)=O` [C16-ER17] (H-INYKALAALAKALC(X1)-NH2; N-terminus assumed), in assay [1], the “G1 ef. (apparent efficacy, maximum turnover number of GTPase activity)” value was “E (Excellent (E): 30-10 fold)” and the EC50 is below 3 µM. Also, in assay [2], the “Goo ef. (apparent efficacy, maximum turnover number of GTPase activity)” value is “E (Excellent (E): 30-10 fold)”. Also, the “Gs ef. (apparent efficacy, maximum turnover number of GTPase activity)” value in assay [3] is “F (Fair (F): 2-5 fold)”.
With Substance P [reference compound], in assay [1], the “GTPase Gi 100 μM” value came out at 0.09 min⁻¹. Also, the “stimulation of Gi” value in assay [1] (GTPase, Table II) was “more than 4 fold”. The “GTPase Go 100 μM” value in assay [2] stood at 0.25 min⁻¹. The “stimulation of Go” value in assay [2] (GTPase, Table II) was “more than 4 fold”.
As for Calcitonin [reference compound], the “GTPase Gi 100 μM” value in assay [1] worked out at 0.01 min⁻¹. Besides, the “GTPase Go 100 μM” value in assay [2] stood at 0.09 min⁻¹.
With `CCCCCCCCCCCC[N+](C)(C)C.[Cl-]` [C12 Me3 NCl, reference compound], in assay [1], the “Turnover number Gi 10 μg/ml” value was 0.04 min⁻¹ and the “Turnover number Gi 100 μg/ml” value worked out at 0.04 min⁻¹. Moreover, in assay [2], the “Turnover number Go 10 μg/ml” value was determined as 0.1 min⁻¹ and the “Turnover number Go 100 μg/ml” value came to 0.5 min⁻¹.
In the case of `CCCCCCCCCCCCN` [C12 NH3 Cl, dodecylamine], in assay [1], the “Turnover number Gi 10 μg/ml” value is 0.06 min⁻¹ and the “Turnover number Gi 100 μg/ml” value was 0.31 min⁻¹. In assay [1] (Table III), the “stimulation of Gi by amines (in words)” value is “stimulated Gi significantly”. Also, in assay [2], the “Turnover number Go 10 μg/ml” value turned out to be 0.18 min⁻¹ and the “Turnover number Go 100 μg/ml” value came to 0.61 min⁻¹.
As for α-Mating factor [reference compound], in assay [1], the “GTPase Gi 100 μM” value amounted to 0.05 min⁻¹. In assay [2], the “GTPase Go 100 μM” value was determined as 0.19 min⁻¹ and the “stimulation of GTPase activity” value was “more than 3 fold”.
In the case of Melanostatin [reference compound], the “GTPase Gi 100 μM” value in assay [1] is 0.03 min⁻¹. In addition, the “GTPase Go 100 μM” value in assay [2] came out at 0.05 min⁻¹.
For “luteinizing hormone releasing hormone [LHRH, reference compound]”, the “GTPase Gi 100 μM” value in assay [1] amounted to 0.03 min⁻¹. Also, the “GTPase Go 100 μM” value in assay [2] amounted to 0.04 min⁻¹.
As to `CC[C@H](C)[C@H](NC(=O)CN)C(=O)NCC(=O)N[C@@H](C)C(=O)N[C@H](C(=O)N[C@@H](CC(C)C)C(=O)N[C@@H](CCCCN)C(=O)N[C@H](C(=O)N[C@@H](CC(C)C)C(=O)N[C@H](C(=O)N[C@H](C(=O)NCC(=O)N[C@@H](CC(C)C)C(=O)N1CCC[C@H]1C(=O)N[C@@H](C)C(=O)N[C@@H](CC(C)C)C(=O)N[C@H](C(=O)N[C@@H](CO)C(=O)N[C@@H](Cc1c[nH]c2ccccc12)C(=O)N[C@H](C(=O)N[C@@H](CCCCN)C(=O)N[C@@H](CCCNC(=N)N)C(=O)N[C@@H](CCCCN)C(=O)N[C@@H](CCCNC(=N)N)C(=O)N[C@@H](CCC(N)=O)C(=O)N[C@@H](CCC(N)=O)C(N)=O)[C@@H](C)CC)[C@@H](C)CC)[C@@H](C)O)[C@@H](C)O)C(C)C)C(C)C` [Melittin, reference compound], in assay [1], the “GTPase Gi 10 μM” value was 0,37 min^-1 and the “GTPase Gi 100 μM” value is 0.40 min⁻¹. In addition, in assay [2], the “GTPase Go 10 μM” value turned out to be 0.63 min⁻¹ and the “GTPase Go 100 μM” value came out at 0.56 min⁻¹. Further, the “ability to activate Gi and Go (in words)” value in assay [2] (GTPase) is “potency and efficacy roughly equivalent to that of mastoparan”.
Turning to Gramicidin S [reference compound], in assay [1], the “GTPase Gi 10 μM” value was determined as 0.13 min⁻¹ and the “GTPase Gi 100 μM” value was determined as 0.31 min⁻¹. In assay [2], the “GTPase Go 10 μM” value amounted to 0.17 min⁻¹ and the “GTPase Go 100 μM” value was found to be 0.47 min⁻¹. The “ability to activate Gi and Go (in words)” value in assay [2] (GTPase) was “somewhat stimulatory”.
With `CCCC[N+](CCCC)(CCCC)Cc1ccccc1.[Cl-]` [BzBu3 NCl, reference compound], in assay [1], the “Turnover number Gi 10 μg/ml” value was 0.04 min⁻¹ and the “Turnover number Gi 100 μg/ml” value was 0.04 min⁻¹. Besides, in assay [2], the “Turnover number Go 10 μg/ml” value was found to be 0.07 min⁻¹ and the “Turnover number Go 100 μg/ml” value stood at 0.07 min⁻¹.
As for `CCCCCCCCCCCCCCCCCC[N+](C)(C)C.[Cl-]` [C18 Me3 NCl, reference compound], in assay [1], the “Turnover number Gi 10 μg/ml” value is 0.04 min⁻¹ and the “Turnover number Gi 100 μg/ml” value is below 0.01 min⁻¹. In assay [2], the “Turnover number Go 10 μg/ml” value worked out at 0.61 min⁻¹ and the “Turnover number Go 100 μg/ml” value is below 0.01 min⁻¹.
Turning to “Angiotensin II (DRVYIHPF; Angiotensin-2; UniProt P01019 25-32, looked up) [reference compound]”, the “GTPase Gi 100 μM” value in assay [1] was found to be 0.23 min⁻¹. Moreover, in assay [2], the “GTPase Go 100 μM” value was found to be 0.31 min⁻¹ and the “stimulation of GTPase activity” value is given as “more than 3 fold”.
In the case of `CCCCCCCCCCCCCCCCCC[N+](C)(C)Cc1ccccc1.[Cl-]` [BAC (C18 ), reference compound], in assay [1], the “Turnover number Gi 10 μg/ml” value was found to be 0.03 min⁻¹ and the “Turnover number Gi 100 μg/ml” value was below 0.01 min⁻¹. Besides, in assay [2], the “Turnover number Go 10 μg/ml” value came to 1.1 min⁻¹ and the “Turnover number Go 100 μg/ml” value was found to be 0.3 min⁻¹.
Consider `CCCCCCCCCCCCCC[N+](C)(C)Cc1ccccc1.[Cl-]` [BAC (C14), reference compound], for which, in assay [1], the “Turnover number Gi 10 μg/ml” value turned out to be 0.04 min⁻¹ and the “Turnover number Gi 100 μg/ml” value is below 0.01 min⁻¹. Further, in assay [2], the “Turnover number Go 10 μg/ml” value was 0.9 min⁻¹ and the “Turnover number Go 100 μg/ml” value amounted to 0.2 min⁻¹.
On to “[D-Ala^2 ]Leu-enkephalin [DALE, reference compound]”, for which the “GTPase Gi 100 μM” value in assay [1] was found to be 0.02 min⁻¹. Also, in assay [2], the “GTPase Go 100 μM” value came out at 0.06 min⁻¹.
`NC(=O)[C@@H]1CCCN1C(=O)[C@H](Cc1cnc[nH]1)NC(=O)[C@@H]1CCC(=O)N1` [TRH, thyrotropin releasing hormone, reference compound]: the “GTPase Gi 100 μM” value in assay [1] came out at 0.03 min⁻¹. For the same compound, the “GTPase Go 100 μM” value in assay [2] was found to be 0.06 min⁻¹.
